# Experimental data taken from patent US5571788A, “Stable calcitonin pharmaceutical compositions” (Ciba-Geigy Corporation, priority 1994, dated 1996).
# What was measured:
# [1] = Long-time hCT stability of aqueous solutions (solution remains clear, free of fibrils); conditions: for time solution is stable: Example 1 repeated (5 mg/ml hCT) with acetic acid replaced by the named acid
# [2] = Ability of an acid to produce a stable hCT solution (stored 24 hours at 25° C., solution remains clear); type: physicochemical; conditions: aqueous hCT solution with the acid, no salt or buffer
# [3] = SUNTEST accelerated light exposure, stability against fibril formation; type: physicochemical; conditions: Example 3 solutions with 0.5% hydroxypropylmethylcellulose; after 24 hours at 47° C. in SUNTEST machine
# [4] = Extrapolated time of fibrillation (ln/ln plot of fibrillation time against hCT concentration); type: physicochemical; conditions: 5-9 mg/ml hCT in 0.001% acetic acid, 4° C.; ln/ln plot from solutions up to 100 mg/ml hCT
# Description: The stability of the solution is dependent on the concentration. We have found a linear correlation between the natural logarithm of fibrillation time and the natural logarithm of hCT concentration at a given temperature. From measurements on hCT solutions with concentrations up to 100 mg/ml hCT and using the 1n/1n plot, stability of more than 5 years at 4° C. is predicted for solutions with 5-9 mg/ml hCT in 0.001% acetic acid.
# Solutions of hCT are made using different concentrations of methyl cellulose (MC) and hydroxypropyl methyl cellulose (HPMC) with and without 0.01% benzethonium chloride (BTC), in one case also with 0.001% acetic acid (AA) and in one case using 0.5% dextran (D). The extrapolated time of fibrillation in years is given for hCT concentration of 3.3 mg/ml and 6.6 mg/ml.
# [5] = Chemical stability tests (Roger's test); type: physicochemical; conditions: 3.3 mg/ml hCT, 0.5% methyl cellulose, 0.02% benzethonium chloride, 0.001% acetic acid; in 5 years, storage at 10° C.
# Description: A solution of hCT is made containing 3.3 mg/ml hCT, 0.5% methyl cellulose, 0.02% benzethonium chloride and 0.001% acetic acid. Chemical stability tests (Roger's test) predicted only 0.02% chemical decomposition of the hCT in 5 years for storage at 10° C.
# [6] = Absorption spectra and HPLC of stored hCT solutions; type: physicochemical; conditions: hCT stored in aqueous solutions of Example 1
time solution is stable [1],acid forms stable hCT solution [2],Compound,other results
over 4 days,–,O=C(O)CCC(=O)O [succinic acid],–
over 4 days,form stable solutions,O=C(O)CC(=O)O [malonic acid],–
over 4 days,form stable solutions,O=C(O)CCCCC(=O)O [adipic acid],–
–,–,human calcitonin [hCT],"stability against fibril formation under accelerated light exposure [3]: stable against fibril formulation; predicted stability of hCT solution [4]: more than 5 years; predicted chemical decomposition of the hCT [5]: 0.02%; time solutions are stable ([1]; Example 3: Example 1 solutions (5 mg/ml hCT, acetic acid) plus 0.5% hydroxypropylmethylcellulose, 4° C., 22° C. and 37° C., in the dark or in daylight): more than 3.5 months; change in hCT properties (absorption spectra and HPLC) [6]: no change in hCT properties"
–,do not form stable solutions,N[C@H](CCC(=O)O)C(=O)O [D-glutamic acid],–
over 4 days,–,N[C@@H](CCC(=O)O)C(=O)O [L-glutamic acid],–
–,do not form stable solutions,O=C(O)/C=C\C(=O)O [maleic acid],–
over 4 days,form stable solutions,O=C1O[C@H]([C@@H](O)CO)C(O)=C1O [ascorbic acid],–
over 4 days,form stable solutions,O=C(O)CC(O)(CC(=O)O)C(=O)O [citric acid],–
–,do not form stable solutions,N[C@@H](CC(=O)O)C(=O)O [aspartic acid],–
–,form stable solutions,O=C(O)CN(CCN(CC(=O)O)CC(=O)O)CC(=O)O [ethylene - diamine tetraacetic acid],–
–,form stable solutions,CC(=O)O [acetic acid],stabilising conditions for hCT solution ([1]; acid concentration 0.001%): best case

Compound,time solution is stable [1],acid forms stable hCT solution [2],other results
Oc1ccccc1 [phenol],–,form stable solutions,–
O=C(O)[C@H](O)[C@@H](O)[C@H](O)[C@H](O)CO [gluconic acid],–,do not form stable solutions,–
Cl [hydrochloric acid],over 4 days,form stable solutions,–
O=CO [formic acid],over 4 days,form stable solutions,–
O=C(O)C(O)C(O)C(=O)O (racemic) [DL-tartaric acid],over 4 days,form stable solutions,–
O=C(O)C(O)C(O)C(=O)O [L-α-tartaric acid],over 4 days,form stable solutions,–
O=C(O)CCCC(=O)O [glutaric acid],over 4 days,form stable solutions,–
O=S(=O)(O)O [sulphuric acid],–,do not form stable solutions,–
